Experimental data: EP0111413A1, “Novel sulfone, process for its preparation, composition containing it and use thereof” (priority 1982, dated 1984)

Experiments:
Pseudomonas aeruginosa = experiment: Minimum Inhibitory Concentration test in nutrient broth (bacterial); type: cell-based; set-up: key: + = Growth; - = No Growth
Protocol: (§1) A Minimum Inhibitory Concentration test with bacteria and fungus was performed in nutrient broth. The test compound was added to sterile broth at 0.1% (1000PPM) and diluted sequentially with sterile broth to yield required levels. One drop of an actively-growing 24-hour culture was added to each level and incubated for a period of 24 hours at a temperature of 30°C. At the end of the time period, an aliquot from each tube was placed on nutrient agar and observed for growth.

Alternaria solani = experiment: Minimum Inhibitory Concentration test in nutrient broth (fungal); type: cell-based; set-up: key: + = Growth; - = No Growth
Protocol: as §1

Annual morning glory = experiment: Postemergence herbicidal test; type: in vivo, Ipomoea purpurea; details: Application rate 4.0 lb/A, postemergence spray, rated visually nineteen days later
Description: (§2) Aluminum planting flats measuring 15.2 x 22.9 x 8.9 cm were filled to a depth of 7.6 cm with loamy sand soil, containing 50 parts per million (ppm) each of the commercial fungicide cis-N(trichloromethyl)thio -4-cyclohexane-l,2-dicarboximide (Captan®) and 17-17-17 fertilizer (percentages of N-P2O5-K2O) on a weight basis). Several rows were impressed across the width of each flat and a variety of seeds of both grass and broadleaf weed species were planted, one species per row. The weed species used are listed below:
(§3) The broad leaf species were seeded first, and the grasses were seeded four days later. Ample seeds of each species were planted to produce 20 to 50 seedlings per row after emergence, depending on the size of each plant.
(§4) Ten days after the grasses were seeded, the emerged seedlings of all species were sprayed with aqueous solutions of the test compounds. The solutions were prepared to such dilutions that a spray rate of 80 gallons per acre (750 liters per hectare) gave from 0.5 to 4.0 pounds of test compound per acre (0.56 to 4.48 kilograms per hectare) as desired for each test. Additional flats not treated at all were used as standards for measuring the extent of weed control in the treated flats. […]

Velvetleaf = experiment: Postemergence herbicidal test; type: in vivo, Abutilon theophrasti; details: Application rate 4.0 lb/A, postemergence spray, rated visually nineteen days later
Description: as §2, §3, §4

Mustard = experiment: Postemergence herbicidal test; type: in vivo, Brassica sp.; details: Application rate 4.0 lb/A, postemergence spray, rated visually nineteen days later
Description: as §2, §3, §4

Foxtail = experiment: Postemergence herbicidal test; type: in vivo, Setaria sp.; details: Application rate 4.0 lb/A, postemergence spray, rated visually nineteen days later
Description: as §2, §3, §4

Watergrass = experiment: Postemergence herbicidal test; type: in vivo, Echinochloa crusgalli; details: Application rate 4.0 lb/A, postemergence spray, rated visually nineteen days later
Description: as §2, §3, §4

Wild oat = experiment: Postemergence herbicidal test; type: in vivo, Avena fatua; details: Application rate 4.0 lb/A, postemergence spray, rated visually nineteen days later
Description: as §2, §3, §4

[1] = 62.5 PPM, buffered to pH 6.8, 24 hours at 30°C
[2] = 62.5 PPM, pH 4, 24 hours at 30°C
[3] = 125 PPM, buffered to pH 6.8, 24 hours at 30°C
[4] = 125 PPM, pH 4, 24 hours at 30°C
[5] = 250 PPM, buffered to pH 6.8, 24 hours at 30°C
[6] = 250 PPM, pH 4, 24 hours at 30°C
[7] = 500 PPM, buffered to pH 6.8, 24 hours at 30°C
[8] = 500 PPM, pH 4, 24 hours at 30°C
[9] = 1000 PPM, buffered to pH 6.8, 24 hours at 30°C
[10] = 1000 PPM, pH 4, 24 hours at 30°C

## CS(=O)(=O)CC(Cl)C#N (centres unmarked) [Compound 1, 3-(methylsulfonyl)-2-chloropropanenitrile]
Pseudomonas aeruginosa; [1]
  Growth: -
Pseudomonas aeruginosa; [2]
  Growth: -
Pseudomonas aeruginosa; [3]
  Growth: -
Pseudomonas aeruginosa; [4]
  Growth: -
Pseudomonas aeruginosa; [5]
  Growth: -
Pseudomonas aeruginosa; [6]
  Growth: -
Pseudomonas aeruginosa; [7]
  Growth: -
Pseudomonas aeruginosa; [8]
  Growth: -
Pseudomonas aeruginosa; [9]
  Growth: -
Pseudomonas aeruginosa; [10]
  Growth: -
Alternaria solani; [1]
  Growth: +
Alternaria solani; [2]
  Growth: +
Alternaria solani; [3]
  Growth: +
Alternaria solani; [4]
  Growth: -
Alternaria solani; [5]
  Growth: -
Alternaria solani; [6]
  Growth: -
Alternaria solani; [7]
  Growth: -
Alternaria solani; [8]
  Growth: -
Alternaria solani; [9]
  Growth: -
Alternaria solani; [10]
  Growth: -
Annual morning glory
  Percent Control A: 75%
Velvetleaf
  Percent Control D: 75%
Mustard
  Percent Control E: 40%
Foxtail
  Percent Control J: 75%
Watergrass
  Percent Control L: 65%
Wild oat
  Percent Control N: 30%
